In patent US9212151B2, “Heterocyclic compounds useful for kinase inhibition” (Amitech Therapeutic Solutions, Inc., priority 2010, dated 2015):

Test: MTT cell viability assay, compounds at 5, 1 and 0.2 μM, 48 hours
Assay type: cell-based
Conditions: human, A549 tumor cells
Description: MTT assay is used to determine cell proliferation, percent of viable cells, and cytotoxicity. MTT (3-[4,5-dimethylthiazol-2-yl]2,5-diphenyltetrazolium bromide) is a yellow dye, which can be absorbed by the living cells and be reduced to purplish blue formazan crystals by succinate tetrazolium reductase in mitochondria. Formazan formation can therefore be used to assess and determine the survival rate of cells.
Tumor cells (A549) were plated at 2500 cells/well of a 96-well plate in complete growth medium (DMEM+10% FBS, antibiotic/antimycotic, fungizone, L-glutamine, sodium pyruvate, and non-essential amino acids). The cells were allowed to grow overnight. After cell proliferation, the cells were washed and re-suspended in fresh culture medium and placed in 96 well plates.
To each of the 96 well plates containing A549 and a control, 5, 1, and 0.2 μM of the exemplary compounds 1-200 were add. The 96 well plates were incubated for 48 hours. Cell viability was measured by adding MTT (Sigma) at 5 mg/ml for 4 h to the cells and then removing the medium and resuspending each well in 50 μl DMSO to solubilize the crystals. The 96-well plates were read on a plate-scanning spectrophotometer (BioTek) at an absorbance of […]. The survival rate of cells was calculated based on the measurement of absorption at the 570 nm wavelength by enzyme immunoassay analyzer.

SMILES | viability at 48 h, 0.2 µM (0.2 μM) | viability at 48 h, 1 µM (1 μM) | viability at 48 h, 5 µM (5 μM) | viability at 48 h, 0.2 µM (0.2 μM compound) | viability at 48 h, 1 µM (1 μM compound) | viability at 48 h, 5 µM (5 μM compound)
Nc1cc(Oc2cccc(-c3nnc(Nc4cccc(C(F)(F)F)c4)[nH]3)c2)nc(N)n1 [Compound 13] | > 70% | > 70% | 50 to 70% | – | – | –
CSc1nc(N)cc(Oc2cc(-c3nnc(Nc4cccc(C(F)(F)F)c4)[nH]3)ccc2C)n1 [Compound 179] | > 70% | > 70% | 50 to 70% | – | – | –
COCCOCCSc1nc(N)cc(Oc2ccc(-c3nnc(Nc4cccc(C(F)(F)F)c4)[nH]3)cc2)n1 [Compound 113] | > 70% | > 70% | – | – | – | –
NS(=O)(=O)c1cnccc1Oc1cccc(-c2nnc(Nc3cccc(C(F)(F)F)c3)o2)c1 [Compound 39] | > 70% | > 70% | > 70% | – | – | –
COc1ccc2c(Oc3ccc(-c4nnc(Nc5cccc(C(F)(F)F)c5)[nH]4)cc3)cc(C)nc2c1 [Compound 188] | > 70% | > 70% | > 70% | – | – | –
Nc1cc(Oc2ccc(-c3nnc(Nc4cccc(C(F)(F)F)c4)s3)cc2)nc(N)n1 [Compound 43] | > 70% | > 70% | > 70% | – | – | –
CSc1nc(N)cc(Oc2ccc(-c3nnc(Nc4cc(C(C)(C)C)on4)[nH]3)cc2)n1 [Compound 129] | > 70% | > 70% | > 70% | – | – | –
FC(F)(F)c1cccc(Nc2nnc(-c3ccc(Oc4nccc5ccccc45)cc3)[nH]2)c1 [Compound 149] | > 70% | > 70% | 50 to 70% | – | – | –
COc1ccc2c(Oc3ccc(-c4cnc(Nc5cccc(C(F)(F)F)c5)[nH]4)cc3)ccnc2c1 [Compound 200] | – | – | – | > 70% | > 70% | > 70%
CSc1nc(Oc2ccc(-c3nnc(Nc4cccc(C(F)(F)F)c4)[nH]3)cc2)c2cc[nH]c2n1 [Compound 9] | > 70% | > 70% | > 70% | – | – | –
COc1nc(N)cc(Oc2ccc(-c3nnc(Nc4cccc(C(F)(F)F)c4)[nH]3)cc2)n1 [Compound 72] | > 70% | > 70% | < 50% | – | – | –
CC(C)(C)Sc1cc(Oc2ccc(-c3nnc(Nc4cccc(C(F)(F)F)c4)[nH]3)cc2)nc(N)n1 [Compound 141] | > 70% | > 70% | < 50% | – | – | –
CSc1nc(N)cc(Oc2ccc(-c3nnc(Nc4cccc(C(F)(F)F)c4)o3)cc2)n1 [Compound 25] | < 50% | < 50% | < 50% | – | – | –
Oc1ccc(Nc2nnc(-c3cccc(Cl)c3)[nH]2)cc1 [Compound 182] | > 70% | > 70% | > 70% | – | – | –
COc1ccc2c(Oc3ccc(-c4nnc(Nc5cccc(C(F)(F)F)c5)o4)cc3)ccnc2c1 [Compound 33] | > 70% | > 70% | > 70% | – | – | –
Nc1cc(Oc2ccc(-c3nnc(Nc4cccc(C(F)(F)F)c4)o3)cc2)ncn1 [Compound 28] | > 70% | > 70% | > 70% | – | – | –
CSc1nc(N)cc(Oc2ccc(-c3nnc(Nc4cc(C)cc(C)c4)[nH]3)cc2)n1 [Compound 123] | < 50% | < 50% | < 50% | – | – | –
FC(F)(F)c1cccc(Nc2nnc(-c3cccc(Oc4ccncc4C(F)(F)F)c3)o2)c1 [Compound 40] | > 70% | > 70% | > 70% | – | – | –
FC(F)(F)c1cccc(Nc2nnc(-c3cccc(Oc4ccnc5ccccc45)c3)[nH]2)c1 [Compound 23] | > 70% | > 70% | > 70% | – | – | –

SMILES | viability at 48 h, 0.2 µM (0.2 μM) | viability at 48 h, 1 µM (1 μM) | viability at 48 h, 5 µM (5 μM) | viability at 48 h, 0.2 µM (0.2 μM compound) | viability at 48 h, 1 µM (1 μM compound) | viability at 48 h, 5 µM (5 μM compound)
FC(F)(F)c1cccc(Nc2nnc(-c3ccc(Oc4ccnc5cc(Cl)ccc45)cc3)[nH]2)c1 [Compound 150] | > 70% | > 70% | > 70% | – | – | –
FC(F)(F)c1cccc(Nc2nnc(-c3cccc(Oc4nccc5ccccc45)c3)[nH]2)c1 [Compound 166] | > 70% | > 70% | > 70% | – | – | –
Cc1cc(Oc2ccc(-c3nnc(Nc4cccc(C(F)(F)F)c4)[nH]3)cc2)ccn1 [Compound 74] | > 70% | < 50% | < 50% | – | – | –
COc1ccc2c(Oc3cccc(-c4nnc(Nc5cccc(C(F)(F)F)c5)s4)c3)ccnc2c1 [Compound 49] | > 70% | > 70% | 50 to 70% | – | – | –
CCc1nc(N)cc(Oc2cccc(-c3nnc(Nc4cccc(C(F)(F)F)c4)[nH]3)c2)n1 [Compound 99] | > 70% | > 70% | 50 to 70% | – | – | –
Cc1ccc(-c2nnc(Nc3cccc(C(F)(F)F)c3)[nH]2)cc1Oc1ccncc1 [Compound 178] | 50 to 70% | < 50% | < 50% | – | – | –
Nc1cc(Oc2ccc(-c3nnc(Nc4cccc(C(F)(F)F)c4)[nH]3)cc2)c2ccccc2n1 [Compound 69] | > 70% | > 70% | > 70% | – | – | –
Fc1ccc2c(Oc3cccc(-c4nnc(Nc5cccc(C(F)(F)F)c5)[nH]4)c3)ccnc2c1 [Compound 192] | > 70% | > 70% | > 70% | – | – | –
FC(F)(F)c1cccc(Nc2nnc(-c3ccc(Oc4ccncc4C(F)(F)F)cc3)[nH]2)c1 [Compound 8] | > 70% | > 70% | 50 to 70% | – | – | –
Nc1nccc(Oc2ccc(-c3nnc(Nc4cccc(C(F)(F)F)c4)[nH]3)cc2)n1 [Compound 1] | > 70% | 50 to 70% | 50 to 70% | – | – | –
Nc1nccc(Oc2cccc(-c3nnc(Nc4cccc(C(F)(F)F)c4)[nH]3)c2)n1 [Compound 15] | > 70% | > 70% | > 70% | – | – | –
COc1ccc(Nc2nnc(-c3cccc(C(F)(F)F)c3)[nH]2)cc1 [Compound 183] | > 70% | > 70% | > 70% | – | – | –
FC(F)(F)c1cccc(Nc2nnc(-c3ccc(Oc4ccncc4)c(Cl)c3)[nH]2)c1 [Compound 103] | > 70% | > 70% | 50 to 70% | – | – | –
CSc1nc(N)cc(Oc2ccc(-c3nnc(Nc4ccc(C#N)cc4)[nH]3)cc2)n1 [Compound 127] | > 70% | > 70% | 50 to 70% | – | – | –
COc1ccc2nccc(Oc3ccc(-c4nnc(Nc5cccc(C(F)(F)F)c5)[nH]4)cc3)c2c1 [Compound 185] | > 70% | > 70% | > 70% | – | – | –
COCCOc1cc(Oc2ccc(-c3nnc(Nc4cccc(C(F)(F)F)c4)[nH]3)cc2)nc(N)n1 [Compound 53] | > 70% | > 70% | < 50% | – | – | –
CCOc1nc(N)cc(Oc2ccc(-c3nnc(Nc4cccc(C(F)(F)F)c4)[nH]3)cc2)n1 [Compound 79] | > 70% | < 50% | < 50% | – | – | –
COc1ccc2c(Oc3cccc(-c4nnc(Nc5cccc(C(F)(F)F)c5)o4)c3)ccnc2c1 [Compound 41] | > 70% | > 70% | > 70% | – | – | –
CSc1nc(N)cc(Oc2ccc(-c3nnc(Nc4cccc(C(F)(F)F)c4)s3)cc2)n1 [Compound 44] | > 70% | > 70% | > 70% | – | – | –
